Reference: the SangsterLogP compilation

Test: method code SF-AS, from DOI: 10.1021/je900189v

SMILES | logP
O=S(=O)(Nc1ncccc1Cl)c1ccccc1 | 1.54
Nc1ccc(S(=O)(=O)Nc2ccc([N+](=O)[O-])cc2Br)cc1 | 1.87
Nc1ccc(S(=O)(=O)Nc2cc(Cl)ccc2Cl)cc1 | 2.45
O=[N+]([O-])c1ccccc1NS(=O)(=O)c1ccccc1 | 2.08
Cc1ccc(NS(=O)(=O)c2ccc(N)cc2)c(Cl)c1 | 2.37
CCN(CC)S(=O)(=O)c1ccc(N)cc1 | 1.52
Nc1ccc(S(=O)(=O)Nc2cc(Cl)c(Cl)cc2Cl)cc1 | 3.17
Nc1ccc(S(=O)(=O)Nc2ccc(I)cc2)cc1 | 2.82
Nc1ccc(S(=O)(=O)Nc2ccc(Cl)c(Cl)c2)cc1 | 2.64
Nc1ccc(S(=O)(=O)Nc2ccc(Cl)cc2)c(Cl)c1 | 2.48
O=S(=O)(Nc1ccccc1Cl)c1ccccc1 | 2.72
CC(=O)Nc1ccncc1NS(=O)(=O)c1ccc([N+](=O)[O-])cc1 | 0.71
Nc1ccc(S(=O)(=O)Nc2ccc(Cl)cc2)cc1 | 2.47
O=S(=O)(Nc1cccc(Cl)c1Cl)c1ccccc1 | 3.45
Cc1cc(N)ccc1S(=O)(=O)Nc1ccc(Cl)cc1 | 2.73
O=[N+]([O-])c1ccc(S(=O)(=O)Nc2nccs2)cc1 | 1.19

SMILES | logP
Cc1ccc(Cl)cc1NS(=O)(=O)c1ccc(N)cc1 | 2.73
CNS(=O)(=O)c1ccc(N)cc1 | 0.07
O=S(=O)(Nc1cccnc1Cl)c1ccccc1 | 1.89
Cc1cc(N)ccc1S(=O)(=O)Nc1ccccc1Cl | 2.66
Cc1ccc(NS(=O)(=O)c2ccc([N+](=O)[O-])cc2)nc1 | 1.01
Nc1ccc(S(=O)(=O)Nc2ccccc2Cl)c(Cl)c1 | 2.98
COc1c(Cl)cccc1NS(=O)(=O)c1ccc(N)cc1 | 2.43
CCc1ccc(NS(=O)(=O)c2ccc(N)cc2)cc1 | 2.62
Cc1cc(N)ccc1S(=O)(=O)Nc1ccccc1[N+](=O)[O-] | 2.19
Cc1ccc(NS(=O)(=O)c2ccc(N)cc2)cc1Cl | 2.92
Cc1cc(Cl)ccc1NS(=O)(=O)c1ccc(N)cc1 | 2.65
O=S(=O)(Nc1ccc(Cl)cc1)c1ccccc1 | 3.44
COc1ccc(NS(=O)(=O)c2ccc(N)cc2)cc1 | 1.58
O=[N+]([O-])c1ccc(NS(=O)(=O)c2ccccc2)cc1 | 2.09
Nc1ccc(S(=O)(=O)Nc2ccc([N+](=O)[O-])cc2)cc1 | 1.88
CCOc1ccc(NS(=O)(=O)c2ccc([N+](=O)[O-])cc2)cc1 | 2.23
